Publication PMC6894422 (Journal of the American Chemical Society, 2019)

What was measured:
[1] = tested on: kinome (222 kinases quantified) in NOMO-1 human AML cells; assay: MIB-MS kinome profiling; type: cell-based; conditions: NOMO-1 cells, 100 nM, one hour
[2] = pharmacokinetic study in mice; type: in vivo
OCI-AML5 AML cells = assay: colony formation in soft agar; type: cell-based
COLO-699 NSCLC cells = assay: colony formation in soft agar; type: cell-based; conditions: 14 days
NOMO-1 AML cells [3] = assay: colony formation in soft agar; type: cell-based, human; conditions: NOMO-1, 300 nM
A549 NSCLC cells = assay: colony formation in soft agar; type: cell-based; conditions: A549, 300 nM, 14 days
Kasumi-1 AML cells = assay: cell death by PoPro-1-iodide/propidium iodide flow cytometry; type: cell-based; conditions: Kasumi-1, 300 nM, 72 hours
NOMO-1 AML cells [4] = assay: as above; conditions: NOMO-1, 300 nM, 72 hours
[5] = tested on: AXL phosphorylation in A549 NSCLC cells; assay: pAXL assay
[6] = tested on: MERTK phosphorylation in 697 ALL cells; assay: pMERTK assay

Structure (SMILES): CC(C)C(=O)Nc1ccnc(C#Cc2ccc(Nc3ncc(-c4ccccn4)c(NC4CCC(O)CC4)n3)cc2)c1 (centres unmarked) [Compound 10]
- number of kinases with lower enrichment on the beads compared to DMSO control ([1]; 222 kinases quantified): 27 kinases
- number of kinases significantly decreased ([1]; p < 0.05 and log2 ratio 10/control ≥ 2): 8 kinases
- oral bioavailability ([2]; p.o.): weak oral bioavailability
- Cmax ([2]; plasma, via i.p. route): 435 ng/mL
- T1/2 ([2]; plasma, via i.p. route): 4.97 h
- reduction in colony number (OCI-AML5 AML cells; OCI-AML5, 50 nM): 70%
- colony formation (OCI-AML5 AML cells; OCI-AML5, 300 nM): complete abrogation of colony formation
- reduction in colony number (COLO-699 NSCLC cells; COLO-699, 50 nM): 70%
- colony formation (COLO-699 NSCLC cells; COLO-699, 300 nM): complete abrogation of colony formation
- reduction in colony number (NOMO-1 AML cells [3]): 60–75%
- reduction in colony number (A549 NSCLC cells): 60–75%
- tumor cell death (% of cells) (Kasumi-1 AML cells): 67%
- tumor cell death (% of cells) (NOMO-1 AML cells [4]): 41%
- inhibition of pAXL at higher concentrations ([5]; higher concentrations of 10): Near complete inhibition
- IC50 ([5]; read-out: IC50 (AXL phosphorylation), A549 NSCLC cells, 1 hour, 95% confidence interval = 18–57 nM): 32 nM
- inhibition of pMERTK at higher concentrations ([6]; higher concentrations of 10): Near complete inhibition
- IC50 ([6]; read-out: IC50 (MERTK phosphorylation), 697 ALL cells, 1 hour, 95% confidence interval = 16–52 nM): 28 nM
